Measured values as given in US6723753B2, “Substituted n-benzyl-n-phenyl aminoalcohol compounds useful for inhibiting cholesteryl ester transfer protein activity” (Pharmacia Corporation, priority 2002, dated 2004).

target: T1, CETP (Homo sapiens, UniProt P11597); test: Assay of CETP Inhibition using Purified Components (Reconstituted Buffer Assay); assay type: biochemical; set-up: made in house; host or cells: CHO cells (serum-free conditioned medium); conditions: Inhibition of CETP activity in reconstituted buffer assay; transfer of [3H]CE from HDL to LDL; read-out: IC50
T1 sequence (P11597 18-493): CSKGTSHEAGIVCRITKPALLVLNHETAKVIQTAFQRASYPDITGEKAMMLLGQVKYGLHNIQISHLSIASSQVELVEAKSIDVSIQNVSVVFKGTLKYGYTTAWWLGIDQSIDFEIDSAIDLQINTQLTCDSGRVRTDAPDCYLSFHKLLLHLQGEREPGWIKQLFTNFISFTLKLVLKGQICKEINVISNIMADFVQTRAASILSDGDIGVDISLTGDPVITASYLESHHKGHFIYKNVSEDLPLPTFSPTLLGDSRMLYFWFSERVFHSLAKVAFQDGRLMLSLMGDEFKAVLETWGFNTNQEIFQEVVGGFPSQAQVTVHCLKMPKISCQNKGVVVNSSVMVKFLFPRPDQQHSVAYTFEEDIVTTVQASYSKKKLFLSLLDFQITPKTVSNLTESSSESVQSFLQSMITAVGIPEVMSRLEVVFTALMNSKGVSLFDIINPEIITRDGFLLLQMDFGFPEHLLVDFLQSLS
Procedure, shortened: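 Purified human recombinant CETP from transfected CHO cells was incubated with [^3H]CE-labeled HDL donor and LDL acceptor in Tris pH 7.4/NaCl/EDTA/1% BSA buffer for 2 h at 37 °C. LDL was then precipitated with dextran sulfate/MgCl2, filtered, and counted by liquid scintillation to give IC50 for CE transfer.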

SMILES | IC50 [µM]
CCOC(=O)C(C#N)C(=O)c1ccc(Nc2cccc(N(Cc3cccc(OC(F)(F)C(F)F)c3)CC(O)C(F)(F)F)c2)cc1 (stereo not drawn) [Example 301] | 11
CCOC(=O)c1cccc(Nc2cccc(N(Cc3cccc(OC(F)(F)C(F)F)c3)CC(O)C(F)(F)F)c2)c1 (stereo not drawn) [Example 303] | 33
COc1cc(Nc2cccc(N(Cc3cccc(OC(F)(F)C(F)F)c3)CC(O)C(F)(F)F)c2)cc(OC)c1OC (stereo not drawn) [Example 306] | 25
OC(CN(Cc1cccc(OC(F)(F)C(F)F)c1)c1cccc(Nc2ccc(OC(F)(F)F)cc2)c1)C(F)(F)F (stereo not drawn) [Example 308] | 15
OC(CN(Cc1cccc(OC(F)(F)C(F)F)c1)c1cccc(Nc2cccc(C(F)(F)F)c2)c1)C(F)(F)F (stereo not drawn) [Example 310] | 6.6
CCCCN(c1ccc(C(=O)OCC)cc1)c1cccc(N(Cc2cccc(OC(F)(F)C(F)F)c2)CC(O)C(F)(F)F)c1 (stereo not drawn) [Example 313] | 20
Cc1ccc(N(CCC#N)c2cccc(N(Cc3cccc(OC(F)(F)C(F)F)c3)CC(O)C(F)(F)F)c2)cc1 (stereo not drawn) [Example 314] | 14
CCN(c1ccc(OC)cc1)c1cccc(N(Cc2cccc(OC(F)(F)C(F)F)c2)CC(O)C(F)(F)F)c1 (stereo not drawn) [Example 319] | 4.7
COc1ccc(N(CCCC(F)(F)F)c2cccc(N(Cc3cccc(OC(F)(F)C(F)F)c3)CC(O)C(F)(F)F)c2)cc1 (stereo not drawn) [Example 320] | 32
OC(CN(Cc1ccc(Cl)s1)c1cccc(OC(F)(F)F)c1)C(F)(F)F (stereo not drawn) [Example 321] | 5
COc1c(F)c(F)c(CN(CC(O)C(F)(F)F)c2cccc(OC(F)(F)F)c2)c(F)c1F (stereo not drawn) [Example 326] | > 100
OC(CN(CCCCOc1ccccc1)c1cccc(OC(F)(F)F)c1)C(F)(F)F (stereo not drawn) [Example 336] | > 100
COc1ccc(CCCN(CC(O)C(F)(F)F)c2cccc(OC(F)(F)F)c2)cc1 (stereo not drawn) [Example 338] | > 100
COc1cc(OC)cc(C(=O)N(CC(O)C(F)(F)F)c2cccc(OC(F)(F)F)c2)c1 (stereo not drawn) [Example 353] | 70
COc1cc(OC)c(OC)cc1CN(CC(O)C(F)(F)F)c1cccc(OC(F)(F)F)c1 (stereo not drawn) [Example 354] | > 100
COc1ccc(OC)c(CN(CC(O)C(F)(F)F)c2cccc(OC(F)(F)F)c2)c1 (stereo not drawn) [Example 355] | 75
Oc1cc(CN(CC(O)C(F)(F)F)c2cccc(OC(F)(F)F)c2)cc(O)c1O (stereo not drawn) [Example 359] | > 100
OC(CN(Cc1cc(Cl)nc(Cl)c1)c1cccc(OC(F)(F)F)c1)C(F)(F)F (stereo not drawn) [Example 366] | 80
CCCCOc1ccc(NC(=O)N(CC(O)C(F)(F)F)c2cccc(OC(F)(F)F)c2)cc1 (stereo not drawn) [Example 367, N′-(4-butoxyphenyl)-N-(3,3,3-trifluoro-2-hydroxypropyl)-N-[3-(trifluoromethoxy)phenyl]urea] | > 100
CSc1ccccc1NC(=O)N(CC(O)C(F)(F)F)c1cccc(OC(F)(F)F)c1 (stereo not drawn) [Example 368] | > 100
O=C(Nc1ccc(-c2ccccc2)cc1)N(CC(O)C(F)(F)F)c1cccc(OC(F)(F)F)c1 (stereo not drawn) [Example 369] | > 100
Cc1ccc(S(=O)(=O)NC(=O)N(CC(O)C(F)(F)F)c2cccc(OC(F)(F)F)c2)cc1 (stereo not drawn) [Example 370] | > 100
OC(CN(Cc1cccc(OC(F)(F)C(F)F)c1)c1cccc(OCc2c(F)c(F)c(F)c(F)c2F)c1)C(F)(F)F (stereo not drawn) [Example 376] | 3.3
OC(CN(Cc1cccc(OC(F)(F)C(F)F)c1)c1cccc(OCc2c(F)c(F)c(C(F)(F)F)c(F)c2F)c1)C(F)(F)F (stereo not drawn) [Example 380] | 11
OC(CN(Cc1cccc(OC(F)(F)C(F)F)c1)c1cccc(OCc2ccc(F)cc2C(F)(F)F)c1)C(F)(F)F (stereo not drawn) [Example 381] | 1.2
N#Cc1cccc(COc2cccc(N(Cc3cccc(OC(F)(F)C(F)F)c3)CC(O)C(F)(F)F)c2)c1 (stereo not drawn) [Example 383] | 2.3
N#Cc1ccc(COc2cccc(N(Cc3cccc(OC(F)(F)C(F)F)c3)CC(O)C(F)(F)F)c2)cc1 (stereo not drawn) [Example 384] | 1.6
COc1c(F)c(F)c(COc2cccc(N(Cc3cccc(OC(F)(F)C(F)F)c3)CC(O)C(F)(F)F)c2)c(F)c1F (stereo not drawn) [Example 386] | 3.2
OC(CN(Cc1cccc(OC(F)(F)C(F)F)c1)c1cccc(OCc2c(F)cc(F)cc2F)c1)C(F)(F)F (stereo not drawn) [Example 392] | 1.4

Results, then the molecule that gave them:

IC50 [µM] | SMILES
9 | OC(CN(Cc1ccc(OC(F)F)cc1)c1cccc(OC(F)(F)F)c1)C(F)(F)F (stereo not drawn) [Example 323]
20 | N#Cc1ccccc1-c1ccc(CN(CC(O)C(F)(F)F)c2cccc(OC(F)(F)F)c2)cc1 (stereo not drawn) [Example 324]
> 100 | N#Cc1cccc(CN(CC(O)C(F)(F)F)c2cccc(OC(F)(F)F)c2)c1 (stereo not drawn) [Example 327]
> 100 | OC(CN(Cc1cc(F)cc(F)c1)c1cccc(OC(F)(F)F)c1)C(F)(F)F (stereo not drawn) [Example 328]
> 100 | OC(CN(Cc1ccc(F)cc1F)c1cccc(OC(F)(F)F)c1)C(F)(F)F (stereo not drawn) [Example 329]
> 100 | OC(CN(Cc1c(F)cccc1F)c1cccc(OC(F)(F)F)c1)C(F)(F)F (stereo not drawn) [Example 330]
> 100 | O=[N+]([O-])c1ccc(CN(CC(O)C(F)(F)F)c2cccc(OC(F)(F)F)c2)cc1 (stereo not drawn) [Example 331]
80 | OC(CN(Cc1cccc2ccccc12)c1cccc(OC(F)(F)F)c1)C(F)(F)F (stereo not drawn) [Example 332]
40 | O=[N+]([O-])c1cccc(CN(CC(O)C(F)(F)F)c2cccc(OC(F)(F)F)c2)c1 (stereo not drawn) [Example 335]
> 100 | OC(CN(CCCc1ccccc1)c1cccc(OC(F)(F)F)c1)C(F)(F)F (stereo not drawn) [Example 337]
> 100 | COC(=O)c1ccc(CN(CC(O)C(F)(F)F)c2cccc(OC(F)(F)F)c2)cc1 (stereo not drawn) [Example 341]
70 | O=C1c2ccccc2C(=O)c2cc(CN(CC(O)C(F)(F)F)c3cccc(OC(F)(F)F)c3)ccc21 (stereo not drawn) [Example 342]
> 100 | OC(CN(CCc1c[nH]c2ccccc12)c1cccc(OC(F)(F)F)c1)C(F)(F)F (stereo not drawn) [Example 344]
45 | OC(CN(Cc1cccnc1)c1cccc(OC(F)(F)F)c1)C(F)(F)F (stereo not drawn) [Example 345]
15 | COc1ccc(CN(CC(O)C(F)(F)F)c2cccc(OC(F)(F)F)c2)cc1 (stereo not drawn) [Example 347]
35 | COc1cccc(CN(CC(O)C(F)(F)F)c2cccc(OC(F)(F)F)c2)c1 (stereo not drawn) [Example 348]
> 100 | OC(CN(Cc1ccncc1)c1cccc(OC(F)(F)F)c1)C(F)(F)F (stereo not drawn) [Example 349]
35 | OC(CN(CC=Cc1ccccc1)c1cccc(OC(F)(F)F)c1)C(F)(F)F (stereo not drawn) [Example 352]
> 100 | O=C(O)c1cccc(CN(CC(O)C(F)(F)F)c2cccc(OC(F)(F)F)c2)c1 (stereo not drawn) [Example 356]

IC50 [µM] | SMILES
40 | Oc1cccc(CN(CC(O)C(F)(F)F)c2cccc(OC(F)(F)F)c2)c1 (stereo not drawn) [Example 357]
> 100 | Oc1ccc(O)c(CN(CC(O)C(F)(F)F)c2cccc(OC(F)(F)F)c2)c1 (stereo not drawn) [Example 358]
> 100 | Oc1cc(O)cc(CN(CC(O)C(F)(F)F)c2cccc(OC(F)(F)F)c2)c1 (stereo not drawn) [Example 360]
45 | OC(CN(Cc1ccc2ccccc2n1)c1cccc(OC(F)(F)F)c1)C(F)(F)F (stereo not drawn) [Example 362]
40 | OC(CN(Cc1ccccn1)c1cccc(OC(F)(F)F)c1)C(F)(F)F (stereo not drawn) [Example 363]
> 100 | OC(CN(Cc1nc2ccccc2[nH]1)c1cccc(OC(F)(F)F)c1)C(F)(F)F (stereo not drawn) [Example 364]
> 100 | OC(CN(Cc1nccn1Cc1ccccc1)c1cccc(OC(F)(F)F)c1)C(F)(F)F (stereo not drawn) [Example 365]
3.9 | Oc1cccc(N(Cc2cccc(OC(F)(F)C(F)F)c2)CC(O)C(F)(F)F)c1 (stereo not drawn) [Example 371, 3-[[[3-(1,1,2,2-tetrafluoroethoxy)phenyl]methyl](3,3,3-trifluoro-2-hydroxypropyl)amino]phenol]
4.5 | O=[N+]([O-])c1ccc(COc2cccc(N(Cc3cccc(OC(F)(F)C(F)F)c3)CC(O)C(F)(F)F)c2)cc1 (stereo not drawn) [Example 375]
2.3 | O=[N+]([O-])c1cccc(COc2cccc(N(Cc3cccc(OC(F)(F)C(F)F)c3)CC(O)C(F)(F)F)c2)c1 (stereo not drawn) [Example 382]
2.2 | COC(=O)c1cccc(COc2cccc(N(Cc3cccc(OC(F)(F)C(F)F)c3)CC(O)C(F)(F)F)c2)c1 (stereo not drawn) [Example 387]
3 | COC(=O)c1ccc(COc2cccc(N(Cc3cccc(OC(F)(F)C(F)F)c3)CC(O)C(F)(F)F)c2)cc1 (stereo not drawn) [Example 388]
3.1 | OC(CN(Cc1cccc(OC(F)(F)C(F)F)c1)c1cccc(OCc2c(F)cccc2F)c1)C(F)(F)F (stereo not drawn) [Example 394]
1.1 | OC(CN(Cc1cccc(OC(F)(F)C(F)F)c1)c1cccc(OCc2ccc(F)c(F)c2)c1)C(F)(F)F (stereo not drawn) [Example 398]
1.5 | OC(CN(Cc1cccc(OC(F)(F)C(F)F)c1)c1cccc(OCc2ccccc2Br)c1)C(F)(F)F (stereo not drawn) [Example 403]
2.1 | OC(CN(Cc1cccc(OC(F)(F)C(F)F)c1)c1cccc(OCc2ccccc2Cl)c1)C(F)(F)F (stereo not drawn) [Example 404]
1.4 | OC(CN(Cc1cccc(OC(F)(F)C(F)F)c1)c1cccc(OCc2cccc(F)c2)c1)C(F)(F)F (stereo not drawn) [Example 406]
1.5 | COc1cccc(COc2cccc(N(Cc3cccc(OC(F)(F)C(F)F)c3)CC(O)C(F)(F)F)c2)c1 (stereo not drawn) [Example 407]
